# Counter-ions that a name gives are not always drawn. The source made the active and inactive calls.
# Key:
# CAAX prenyl protease 2 = target: T1, CAAX prenyl protease 2 (Saccharomyces cerevisiae S288c, UniProt Q03530); assay type: biochemical
# T1 sequence (Q03530 whole entry): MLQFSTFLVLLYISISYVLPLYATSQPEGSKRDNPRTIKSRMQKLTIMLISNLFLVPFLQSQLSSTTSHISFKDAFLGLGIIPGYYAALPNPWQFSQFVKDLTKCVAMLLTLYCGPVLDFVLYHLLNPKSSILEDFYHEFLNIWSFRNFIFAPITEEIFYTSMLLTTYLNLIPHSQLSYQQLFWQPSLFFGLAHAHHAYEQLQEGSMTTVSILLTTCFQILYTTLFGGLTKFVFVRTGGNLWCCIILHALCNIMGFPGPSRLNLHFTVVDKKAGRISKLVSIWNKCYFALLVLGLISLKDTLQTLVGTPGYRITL
# CAAX prenyl protease 1 = CAAX prenyl protease 1 (Saccharomyces cerevisiae S288c, UniProt P47154); assay: Ste24 protease inhibitors, dose response, biochemical, S. cerevisiae, plate reader, cherry-pick (AID 488815)
# [1] = inhibitors of Trypanosoma cruzi host-cell infection, confirmation, beta-gal luminescence, NIH3T3 host cells (AID 2630); assay type: functional, cell-based; conditions: Mus musculus
# Cytochrome P450 2C19 = Cytochrome P450 2C19 (Homo sapiens, UniProt P33261); assay: Cytochrome panel assay with activity outcomes. Panel member name: p450-cyp2c19 Compounds with AC50 equal or less than 10 uM are considered active; assay type: functional; conditions: read-out: AC50
# Cytochrome P450 1A2 = target: T2, Cytochrome P450 1A2 (Homo sapiens, UniProt P05177);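 note: PubChem cytochrome P450 panel assay, CYP1A2 panel member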
# T2 sequence (P05177 whole entry): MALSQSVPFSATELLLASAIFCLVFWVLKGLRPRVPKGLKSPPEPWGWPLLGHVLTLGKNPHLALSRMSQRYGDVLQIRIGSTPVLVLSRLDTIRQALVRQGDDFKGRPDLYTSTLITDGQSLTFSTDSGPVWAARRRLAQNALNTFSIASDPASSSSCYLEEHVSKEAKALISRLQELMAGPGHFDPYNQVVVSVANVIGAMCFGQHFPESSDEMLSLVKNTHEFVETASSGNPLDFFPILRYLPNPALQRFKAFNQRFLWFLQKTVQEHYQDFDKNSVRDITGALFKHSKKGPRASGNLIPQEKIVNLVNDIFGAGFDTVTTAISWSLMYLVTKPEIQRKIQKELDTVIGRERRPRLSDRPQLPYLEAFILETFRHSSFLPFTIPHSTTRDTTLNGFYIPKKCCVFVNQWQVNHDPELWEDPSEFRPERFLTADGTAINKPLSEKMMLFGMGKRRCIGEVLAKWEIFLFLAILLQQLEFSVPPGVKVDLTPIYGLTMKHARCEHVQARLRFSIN
# Cytochrome P450 3A4 = Cytochrome P450 3A4 (Homo sapiens, UniProt P08684);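 note: CYP3A4 tested as one member of a cytochrome P450 panel screen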
# Cytochrome P450 2C9 = Cytochrome P450 2C9 (Homo sapiens, UniProt P11712)
# [2] = HEp-2 cell cytotoxicity, dose response, cytotoxicity control for RSV inhibitor project, HTS (AID 2410); assay type: functional; conditions: human respiratory syncytial virus
# [3] = growth suppression of PTEN-null colon cells, dose response, cell-based, HCT116 PTEN knockout (AID 1047); assay type: functional;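 note: HCT116 colon tumor cells with PTEN knocked out; cells exposed to compound for 60 hours before readout; potency for loss of cell viability measured by luminescence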
# [4] = growth suppression of beta-catenin-knockout colon cells, dose response, cell-based, HCT116, human colon tumor (AID 1045); assay type: functional;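 note: HCT116 colon tumor cells with beta catenin knocked out; cells exposed to compound for 60 hours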
# [5] = THP-1 cell cytotoxicity, dose response, cytotoxicity control for non-replicating M. tuberculosis project (AID 489025); assay type: functional
# [6] = Vero E6 cell cytotoxicity, dose response, cytotoxicity control for non-replicating M. tuberculosis project, secondary assay (AID 492998); assay type: functional, VeroE6; conditions: Vero C1008
# [7] = cytotoxicity in HEK-293T cells, dose response, cytotoxicity control for BCR NF-kB inhibitor project, luminescence, B-cell screen hits (AID 489021); assay type: functional, cell-based;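 note: HEK-293T cells carrying an NF-kB luciferase reporter; cells exposed to compound for about 14 hours before viability readout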
# HEK293 [8] = assay: cells; conditions: Homo sapiens
# HEK293 [9] = assay: cells; conditions: Homo sapiens; remark: listed apart in the source
# Jurkat = assay: antigen receptor-induced NF-kB inhibitors, dose response, Jurkat, luciferase reporter, luminescence, B- and T-cell (AID 489004); assay type: functional, cell-based; conditions: Homo sapiens;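 note: NF-kB luciferase reporter Jurkat cells stimulated with PMA plus ionomycin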
# [10] = cytotoxicity in HEK-293T NF-kB-Luc cells, dose response, cytotoxicity control for B/T-cell NF-kB inhibitor project, cell-based, uHTS hits (AID 489019); assay type: functional;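 note: IC50 reflects cytotoxicity as loss of cell viability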
# [11] = target: T3, Microphthalmia-associated transcription factor (Homo sapiens, UniProt O75030); assay: TRPM1 promoter luciferase signal decrease, dose response, MITF inhibitor project, cell-based, SK-MEL-5, cherry-picked, set 3 (AID 493073); assay type: functional
# T3 sequence (O75030 whole entry): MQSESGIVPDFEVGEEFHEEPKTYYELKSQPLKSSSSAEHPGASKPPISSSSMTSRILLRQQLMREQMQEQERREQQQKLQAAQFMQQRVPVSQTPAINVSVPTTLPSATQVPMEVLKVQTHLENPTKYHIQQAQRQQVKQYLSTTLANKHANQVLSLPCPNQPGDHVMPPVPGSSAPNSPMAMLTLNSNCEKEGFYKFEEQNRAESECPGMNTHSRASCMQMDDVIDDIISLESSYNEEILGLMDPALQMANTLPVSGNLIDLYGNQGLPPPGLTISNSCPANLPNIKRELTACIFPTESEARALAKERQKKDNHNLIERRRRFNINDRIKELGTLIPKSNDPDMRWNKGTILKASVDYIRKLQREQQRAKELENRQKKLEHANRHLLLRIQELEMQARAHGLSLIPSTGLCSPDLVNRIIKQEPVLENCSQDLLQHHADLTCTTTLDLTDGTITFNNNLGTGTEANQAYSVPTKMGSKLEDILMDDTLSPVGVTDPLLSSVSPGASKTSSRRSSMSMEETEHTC
# [12] = target: Dual specificity tyrosine-phosphorylation-regulated kinase 1A (Rattus norvegicus, UniProt Q63470); assay type: biochemical, Homo sapiens
# [13] = inhibitors of HIV Env-driven cell fusion, dose response, cherry-pick (AID 652057); assay type: functional, cell-based
# [14] = ZM109 Env clade C HIV-1 fusion inhibitors, dose response, HeLa effector, CEM target cells, luciferase, cherry-pick (AID 652058); assay type: functional, cell-based
# [15] = off-target signal loss in HeLa-CEM21 co-culture – HeLa F-luc CTL cells, cherry-picked, counter-screen for HIV-1 Env fusion inhibitor project, dose response (AID 652040); assay type: functional, cell-based;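 note: potency for signal decrease marking cytotoxic or nonspecific inhibition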
# [16] = inhibitors of clade B AD8 Env fusion, dose response, cell-based, cherry-pick (AID 652062); assay type: functional;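 note: luciferase signal from cell-cell fusion driven by HIV-1 clade B AD8 Env; potency is for inhibitors of fusion seen as a drop in luminescence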
# [17] = MC4R antagonists, dose response, counter-screen for LGR2 antagonist project, cell-based, plate reader, cherry pick (AID 743444); assay type: functional;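 note: transfected HEK 293 cells stimulated with alpha-MSH peptide; potency of inhibitors of the alpha-MSH evoked signal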
# Mu-type opioid receptor [18] = target: T4, Mu-type opioid receptor (Homo sapiens, UniProt P35372); assay: SAR Analysis of Antagonists of the MOR Receptor using an Image-Based Assay - Set 2. [Related pubchem assays (depositor defined):AID1777, AID1785, AID1786, AID1966, AID2133, AID2136, AID2284, AID2285, AID2420]; assay type: functional
# [19] = target: T5, Kappa-type opioid receptor (Homo sapiens, UniProt P41145); assay: SAR analysis of Antagonists of the Kappa Opioid Receptor (KOR) using an Image-Based Assay - Set 2. [Related pubchem assays (depositor defined):AID1777, AID1785, AID1786, AID1966, AID2133, AID2136, AID2284, AID2285, AID2348]; assay type: functional
# Mu-type opioid receptor [20] = target: T4, Mu-type opioid receptor; assay: SAR Analysis of Agonists of the MOR Receptor using an Image-Based Assay - Set 2. [Related pubchem assays (depositor defined):AID1777, AID1785, AID1786, AID1966, AID2133, AID2136, AID2284, AID2285, AID2352]; assay type: functional
# [21] = target: T5, Kappa-type opioid receptor; assay: SAR analysis of small molecule agonists of the kappa opioid receptor via a luminescent beta-arrestin assay - Set 2. [Related pubchem assays (depositor defined):AID1777, AID1785, AID1786, AID1966, AID2133, AID2136, AID2284, AID449737]; assay type: functional
# [22] = target: T6, Delta-type opioid receptor (Homo sapiens, UniProt P41143); assay: SAR Analysis of Agonists of the DOR Receptor using an Image-Based Assay - Set 2. [Related pubchem assays (depositor defined):AID1777, AID1785, AID1786, AID1966, AID2133, AID2136, AID2284, AID2285, AID2370]; assay type: functional
# [23] = target: T6, Delta-type opioid receptor; assay: SAR Analysis of Antagonists of the DOR Receptor using an Image-Based Assay - Set 2. [Related pubchem assays (depositor defined):AID1777, AID1785, AID1786, AID1966, AID2133, AID2136, AID2284, AID2285, AID2357]; assay type: functional
# [24] = target: T5, Kappa-type opioid receptor; assay: SAR analysis of Agonists of the Kappa Opioid Receptor (KOR) using an Image-Based Assay - Set 2. [Related pubchem assays (depositor defined):AID1777, AID1786, AID1966, AID2133, AID2136, AID2284, AID2285, AID2359]; assay type: functional
# [25] = target: Glucose-6-phosphate 1-dehydrogenase (Homo sapiens, UniProt P11413); assay: human G6PD enzyme inhibitors, dose response, selectivity assay for P. falciparum G6PD inhibitor project, biochemical, fluorescence (AID 504792); assay type: functional
# [26] = target: Voltage-gated inwardly rectifying potassium channel KCNH2 (Homo sapiens, UniProt Q12809); conditions: Potency;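 note: confirmatory quantitative high-throughput screen measuring inhibition of hERG channel activity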
# Chain of Voltage-gated inwardly rectifying potassium channel KCNH2 (Q12809 whole entry): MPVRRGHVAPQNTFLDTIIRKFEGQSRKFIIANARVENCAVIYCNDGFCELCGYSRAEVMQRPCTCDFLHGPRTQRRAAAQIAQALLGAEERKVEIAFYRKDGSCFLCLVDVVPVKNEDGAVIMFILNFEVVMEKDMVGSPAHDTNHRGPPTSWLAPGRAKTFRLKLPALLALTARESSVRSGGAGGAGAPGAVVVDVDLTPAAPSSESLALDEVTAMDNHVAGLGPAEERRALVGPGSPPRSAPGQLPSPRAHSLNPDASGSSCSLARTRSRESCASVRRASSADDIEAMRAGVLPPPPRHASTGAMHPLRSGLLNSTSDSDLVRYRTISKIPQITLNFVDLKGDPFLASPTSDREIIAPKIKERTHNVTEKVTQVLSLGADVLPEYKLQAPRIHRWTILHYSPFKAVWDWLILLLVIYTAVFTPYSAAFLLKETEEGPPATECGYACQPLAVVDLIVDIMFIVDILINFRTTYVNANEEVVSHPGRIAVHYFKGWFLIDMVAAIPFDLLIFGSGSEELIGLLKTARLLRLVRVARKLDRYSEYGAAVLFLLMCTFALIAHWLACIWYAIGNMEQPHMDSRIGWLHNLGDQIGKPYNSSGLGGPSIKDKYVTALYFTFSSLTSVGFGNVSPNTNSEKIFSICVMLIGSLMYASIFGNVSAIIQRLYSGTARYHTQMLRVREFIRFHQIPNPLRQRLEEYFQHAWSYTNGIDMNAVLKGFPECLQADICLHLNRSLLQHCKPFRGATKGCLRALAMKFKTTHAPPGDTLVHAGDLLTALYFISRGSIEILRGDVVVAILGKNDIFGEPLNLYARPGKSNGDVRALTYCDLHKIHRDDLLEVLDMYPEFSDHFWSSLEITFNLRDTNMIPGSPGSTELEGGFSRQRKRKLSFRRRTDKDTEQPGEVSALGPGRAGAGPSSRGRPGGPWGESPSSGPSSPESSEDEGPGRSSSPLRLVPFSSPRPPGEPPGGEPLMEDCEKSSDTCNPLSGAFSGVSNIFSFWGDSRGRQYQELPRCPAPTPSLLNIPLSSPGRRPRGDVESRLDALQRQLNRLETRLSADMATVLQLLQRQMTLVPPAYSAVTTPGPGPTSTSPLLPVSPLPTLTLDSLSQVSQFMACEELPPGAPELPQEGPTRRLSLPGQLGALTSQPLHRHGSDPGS
# T5 sequence (P41145 whole entry): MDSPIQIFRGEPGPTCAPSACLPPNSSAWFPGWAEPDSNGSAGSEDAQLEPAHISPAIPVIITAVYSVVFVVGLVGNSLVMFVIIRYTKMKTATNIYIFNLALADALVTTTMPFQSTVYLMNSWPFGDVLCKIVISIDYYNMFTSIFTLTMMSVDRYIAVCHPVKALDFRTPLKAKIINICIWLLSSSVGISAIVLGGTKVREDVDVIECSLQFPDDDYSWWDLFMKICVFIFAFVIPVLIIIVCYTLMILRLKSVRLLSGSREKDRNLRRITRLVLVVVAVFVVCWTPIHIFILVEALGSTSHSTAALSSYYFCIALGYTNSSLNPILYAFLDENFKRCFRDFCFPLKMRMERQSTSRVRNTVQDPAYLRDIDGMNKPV
# T6 sequence (P41143 whole entry): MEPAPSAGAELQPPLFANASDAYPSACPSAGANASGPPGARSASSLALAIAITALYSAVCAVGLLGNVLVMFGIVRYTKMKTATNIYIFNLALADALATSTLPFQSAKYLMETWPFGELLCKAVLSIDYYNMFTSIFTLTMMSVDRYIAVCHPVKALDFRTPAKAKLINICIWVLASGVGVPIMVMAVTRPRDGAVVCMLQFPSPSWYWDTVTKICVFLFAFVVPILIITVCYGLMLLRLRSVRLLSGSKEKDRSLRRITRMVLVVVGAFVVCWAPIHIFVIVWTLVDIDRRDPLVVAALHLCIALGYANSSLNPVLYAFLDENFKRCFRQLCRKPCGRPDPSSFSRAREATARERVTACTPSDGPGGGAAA
# Chain of Glucose-6-phosphate 1-dehydrogenase (P11413 whole entry): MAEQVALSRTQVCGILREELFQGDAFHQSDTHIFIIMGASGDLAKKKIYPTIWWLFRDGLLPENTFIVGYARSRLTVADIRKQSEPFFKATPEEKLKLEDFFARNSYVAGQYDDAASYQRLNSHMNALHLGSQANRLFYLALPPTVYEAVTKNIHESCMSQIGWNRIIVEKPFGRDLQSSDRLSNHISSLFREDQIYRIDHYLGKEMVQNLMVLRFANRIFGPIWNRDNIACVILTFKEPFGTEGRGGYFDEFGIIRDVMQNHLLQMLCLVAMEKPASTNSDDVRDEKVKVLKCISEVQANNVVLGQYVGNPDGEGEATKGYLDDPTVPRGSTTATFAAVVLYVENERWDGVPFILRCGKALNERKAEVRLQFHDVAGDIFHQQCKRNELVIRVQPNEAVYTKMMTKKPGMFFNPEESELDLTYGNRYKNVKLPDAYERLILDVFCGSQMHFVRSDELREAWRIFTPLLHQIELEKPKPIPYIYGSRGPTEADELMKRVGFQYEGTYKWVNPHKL
# Chain of CAAX prenyl protease 1 (P47154 whole entry): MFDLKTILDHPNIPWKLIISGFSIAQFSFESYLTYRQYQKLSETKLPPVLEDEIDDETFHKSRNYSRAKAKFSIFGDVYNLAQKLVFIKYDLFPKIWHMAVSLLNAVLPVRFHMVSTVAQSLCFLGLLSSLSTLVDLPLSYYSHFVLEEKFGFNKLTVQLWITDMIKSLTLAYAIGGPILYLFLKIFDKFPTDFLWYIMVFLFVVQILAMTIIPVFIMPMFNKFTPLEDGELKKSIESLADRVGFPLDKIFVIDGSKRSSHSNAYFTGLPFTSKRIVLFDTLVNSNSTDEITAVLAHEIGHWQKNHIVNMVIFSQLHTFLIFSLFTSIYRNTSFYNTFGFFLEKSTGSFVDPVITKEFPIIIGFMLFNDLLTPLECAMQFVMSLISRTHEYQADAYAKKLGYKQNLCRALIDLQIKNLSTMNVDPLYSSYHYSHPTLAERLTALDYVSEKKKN
# T4 sequence (P35372 whole entry): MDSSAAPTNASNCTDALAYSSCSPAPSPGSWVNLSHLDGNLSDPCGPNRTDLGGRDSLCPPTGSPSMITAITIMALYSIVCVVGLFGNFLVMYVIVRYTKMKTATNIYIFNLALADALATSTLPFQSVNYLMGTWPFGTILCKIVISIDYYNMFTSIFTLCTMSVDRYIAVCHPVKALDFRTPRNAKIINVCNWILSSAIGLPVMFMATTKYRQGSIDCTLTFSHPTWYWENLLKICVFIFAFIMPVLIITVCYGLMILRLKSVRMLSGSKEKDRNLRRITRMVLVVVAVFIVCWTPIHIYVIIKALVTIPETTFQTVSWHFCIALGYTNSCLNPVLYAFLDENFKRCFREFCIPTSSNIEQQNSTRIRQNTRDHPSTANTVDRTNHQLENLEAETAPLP
# Chain of Cytochrome P450 3A4 (P08684 whole entry): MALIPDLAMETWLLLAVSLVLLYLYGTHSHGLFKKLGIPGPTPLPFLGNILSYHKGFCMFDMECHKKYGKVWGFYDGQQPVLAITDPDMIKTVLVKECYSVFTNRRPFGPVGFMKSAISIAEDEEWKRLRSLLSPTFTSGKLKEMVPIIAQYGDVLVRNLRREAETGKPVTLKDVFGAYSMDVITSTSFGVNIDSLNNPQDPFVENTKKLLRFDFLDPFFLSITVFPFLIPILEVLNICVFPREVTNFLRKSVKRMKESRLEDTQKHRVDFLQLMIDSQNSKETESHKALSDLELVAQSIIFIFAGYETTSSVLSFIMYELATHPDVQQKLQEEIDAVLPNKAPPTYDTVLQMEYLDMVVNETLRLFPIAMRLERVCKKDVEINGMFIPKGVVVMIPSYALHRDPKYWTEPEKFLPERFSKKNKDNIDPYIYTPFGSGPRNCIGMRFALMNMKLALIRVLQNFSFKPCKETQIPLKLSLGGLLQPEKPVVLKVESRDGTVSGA
# Chain of Cytochrome P450 2C9 (P11712 whole entry): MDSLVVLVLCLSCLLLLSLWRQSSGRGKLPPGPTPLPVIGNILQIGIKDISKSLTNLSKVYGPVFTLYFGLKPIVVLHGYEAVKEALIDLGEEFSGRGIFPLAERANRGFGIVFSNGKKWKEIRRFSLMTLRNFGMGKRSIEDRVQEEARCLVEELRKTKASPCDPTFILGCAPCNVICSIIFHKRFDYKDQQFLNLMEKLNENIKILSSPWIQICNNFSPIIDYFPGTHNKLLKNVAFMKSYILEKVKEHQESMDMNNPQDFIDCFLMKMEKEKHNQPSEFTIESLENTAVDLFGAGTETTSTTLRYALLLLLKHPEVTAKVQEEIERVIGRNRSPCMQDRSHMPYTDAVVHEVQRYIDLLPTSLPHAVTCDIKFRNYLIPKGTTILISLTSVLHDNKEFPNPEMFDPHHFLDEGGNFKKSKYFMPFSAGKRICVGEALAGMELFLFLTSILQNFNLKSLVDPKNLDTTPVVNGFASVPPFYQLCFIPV
# Chain of Cytochrome P450 2C19 (P33261 whole entry): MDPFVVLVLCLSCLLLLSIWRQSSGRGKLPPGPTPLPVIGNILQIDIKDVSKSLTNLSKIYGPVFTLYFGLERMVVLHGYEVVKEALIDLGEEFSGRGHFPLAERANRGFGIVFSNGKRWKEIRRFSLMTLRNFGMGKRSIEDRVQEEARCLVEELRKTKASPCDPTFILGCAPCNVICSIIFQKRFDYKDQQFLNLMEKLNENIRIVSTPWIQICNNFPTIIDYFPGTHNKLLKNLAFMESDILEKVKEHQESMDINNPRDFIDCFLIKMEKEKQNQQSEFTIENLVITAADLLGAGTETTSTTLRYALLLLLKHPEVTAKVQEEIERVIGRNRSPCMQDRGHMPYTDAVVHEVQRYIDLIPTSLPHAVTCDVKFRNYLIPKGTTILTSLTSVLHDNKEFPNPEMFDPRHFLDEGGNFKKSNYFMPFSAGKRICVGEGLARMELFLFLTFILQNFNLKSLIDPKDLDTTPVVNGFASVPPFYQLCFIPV
structure (smiles),measurement,setting,value
NC(=O)CSC1=Nc2ccccc2C2=NC(c3ccccc3)C(=O)N12 (configuration not stated),AC50,CAAX prenyl protease 2,4.61 µM (active)
same,AC50,CAAX prenyl protease 1,5.41 µM (active)
Cc1cc(C)n(CC(=O)N2CCCC(C(=O)c3cccc(OC(C)C)c3)C2)n1 (configuration not stated),EC50,[1],14.1 µM (active)
CCCCC1(C)OC(=O)C(=Cc2ccc(N(C)C)cc2)C(=O)O1 (configuration not stated),AC50,Cytochrome P450 2C19,28.2 µM (inconclusive)
same,AC50,Cytochrome P450 1A2,14.1 µM (inconclusive)
same,AC50,Cytochrome P450 3A4,1 µM (inconclusive)
same,AC50,Cytochrome P450 2C9,inconclusive
CC1=CC(C)(C)Nc2ccc(OC(=O)CN3C(=O)c4ccccc4C3=O)cc21,CC50,[2],6.94 µM (active)
same,EC50,[3],9.51 µM (active)
same,EC50,[4],5.85 µM (active)
same,CC50,[5],6.68 µM (active)
same,CC50,[6],13.6 µM (active)
same,IC50,[7],58.6 µM (inactive)
same,EC50,HEK293 [8],> 59.6 µM (inactive)
same,EC50,HEK293 [9],> 59.6 µM (inactive)
Cc1ccc2nc(NC(=O)CCCC(=O)O)sc2c1,IC50,Jurkat,0.8 µM (active)
same,IC50,[10],> 80 µM (inactive)
same,AC50,[11],12.1 µM (active)
same,AC50,[12],4.63 µM (active)
same,AC50,[13],1.42 µM (active)
same,AC50,[14],0.62 µM (active)
same,AC50,[15],2.82 µM (active)
same,AC50,[16],1.02 µM (active)
same,AC50,[17],44.1 µM (active)
Cc1ccc(CSc2nnc(-c3ccccn3)n2Cc2cccs2)cc1,IC50,Mu-type opioid receptor [18],> 32 µM (inactive)
same,IC50,[19],> 32 µM (inactive)
same,EC50,Mu-type opioid receptor [20],> 32 µM (inactive)
same,EC50,[21],3.59 µM (active)
same,EC50,[22],> 32 µM (inactive)
same,IC50,[23],> 32 µM (inactive)
same,EC50,[24],2.38 µM (active)
C[N+]1([C@H](CO)Cc2c[nH]c3ccccc23)Cc2ccccc2C1.O=S(=O)([O-])c1ccccc1,AC50,Cytochrome P450 1A2,inactive
Cc1[nH]c2ccccc2c1/C=N/NC(=O)c1cccc(S(=O)(=O)Nc2ccccc2Cl)c1,IC50,[25],> 80 µM (inactive)
COc1ccc(NC(C)C(=O)N/N=C/c2cc(Br)ccc2OC)cc1 (configuration not stated),IC50,[25],> 80 µM (inactive)
CC(CCc1ccccc1)NCC(O)c1ccc(O)c(C(N)=O)c1 (configuration not stated) [LABETALOL HYDROCHLORIDE],AC50,CAAX prenyl protease 2,15.3 µM (active)
same,AC50,CAAX prenyl protease 1,7.7 µM (active)
same,AC50,[26],15.8 µM (inconclusive)

# — ChEMBL document CHEMBL1201862, “PubChem BioAssay data set” (2004)
